Data set [1] in a line: Dark toxicity against mouse NIH/3T3 cells assessed as cell viability after 48 hrs by MTT assay. The class given is cell-based, NIH3T3. On the technique in general: Tetrazolium dyes change colour on reduction, which living cells bring about.
Data set [2] can be described thus: Dark toxicity against mouse L1210 cells assessed as cell viability after 48 hrs by MTT assay. The data set is classed as cell-based.
The next data set relates to L1210. As to the kind of experiment: Phototoxicity against mouse L1210 cells assessed as cell viability preincubated for 1 hr followed by 1.05 J/cm2 UV-A irradiation measured after 48 hrs by MTT assay. The class given is functional, cell-based. The settings on record: L1210, light or radiation study.
Data set [3] can be described thus: Phototoxicity against mouse NIH/3T3 cells assessed as cell viability preincubated for 1 hr followed by 1.05 J/cm2 UV-A irradiation measured after 48 hrs by MTT assay. The class given is cell-based. The settings on record: NIH3T3, light or radiation study.

The structures appear in SMILES notation.

As a reminder, the IC50 is the point on the concentration scale where inhibition reaches its midpoint. With `CCCCNC(=S)Nc1ccc2cc3ccc(NC(=S)NCCCC)cc3nc2c1`, the IC50 at 48 h came to 32.7 µM in data set [1] and 6.6 µM in data set [2]. Also, the IC50 in the data set on L1210 came to 520 nM; in data set [3], 2.6 µM.

For `CCCCCNC(=S)Nc1ccc2cc3ccc(NC(=S)NCCCCC)cc3nc2c1`, the results for the half-maximal inhibitory concentration (IC50) at 48 h in data set [1] and in data set [2] were 37.5 µM and 9.2 µM, respectively. Further, the IC50 in the data set with L1210 was 600 nM; in data set [3], 3.7 µM.

For the origin of these results see ChEMBL document CHEMBL3797140, “Acridin-3,6-dialkyldithiourea hydrochlorides as new photosensitizers for photodynamic therapy of mouse leukemia cells” (Bioorg Med Chem, 2016).
